Data as given in US12281363B2, “Methods for detecting antiviral-drug resistant virus” (Secretary of State for Health and Social Care, priority 2018, dated 2025).
Read-outs that look alike come from different tables or passages of the source.

System: HSV-1
Test: Plaque reduction assay, HSV-1 clinical isolates on Vero cells
Format: cell-based
Conditions: Human alphaherpesvirus 1, Vero
Excerpt: Viral isolates were used to infect a sub-confluent monolayer of Vero cells at a concentration of 75 or 50 plaque forming units (PFU) per well for HSV-1 and HSV-2, respectively. […] CMC medium typically used to create a semisolid interface and prevents indiscrimate viral spreading. Other materials (e.g. agar) may also be used to create this interface.
Cells were fixed with 10% formalin and stained with crystal violet before enumeration of the plaques (microscopic observation or use of fluorescent antibodies for detection is also suitable). The data obtained from these experiments were then expressed as percent inhibition of viral infectivity relative to the no drug control.
Definitions of phenotypic drug susceptibility classification as sensitive or resistant were as follows: ACV, <3 μM or >40 μM; PCV, <10 μM or >40 μM; CDV, <24 μM or >30 μM; FOS, <250 μM or >400 μM; and ACV, <6.5 μM or >40 μM; PCV, <38 μM or >40 μM; FOS, <250 μM or >400 μM for HSV-1 and HSV-2, respectively. Any IC50 values falling in between these sensitive and resistant cut-offs were reported as intermediate resistance.
The phenotype (i.e. reactivity to a drug) of the virus was characterised by the plaque reduction assay as described above.

**Q.** Which results are given for `Nc1nc2c(ncn2CCC(CO)CO)c(=O)[nH]1` [Penciclovir, penciclovir]?
**A.** IC50 (72 h, isolate HPG053, HSV-1 pol L802R + A834S (2405T>G, 2500G>T), also TK R176W, read-out: Drug susceptibility (IC50 value)): > 160 µM; IC50 (isolate HPG002, HSV-1 pol E992K (2974G>A), also TK insert (G) nt 430-436, pol A1169T, read-out: Drug susceptibility (IC50 value)): > 160 µM; IC50 (isolate HPG002, HSV-1 pol E992K (2974G>A), also TK insert (G) nt 430-436, pol A1169T, read-out: Drug susceptibility Penciclovir (PCV)): > 40 µM; IC50 (isolate HPG003, HSV-1 TK Y172S (515A>C), read-out: Drug susceptibility (IC50 value)): 106 µM; IC50 (isolate HPG003, HSV-1 TK Y172S (515A>C), read-out: Drug susceptibility Penciclovir (PCV)): > 40 µM; IC50 (isolate HPG005, HSV-1 TK A37V (110C>T), read-out: Drug susceptibility (IC50 value)): 5.19 µM; IC50 (isolate HPG005, HSV-1 TK A37V (110C>T), read-out: Drug susceptibility Penciclovir (PCV)): < 10 µM; IC50 (isolate HPG008, HSV-1 TK V204G (611T>G), read-out: Drug susceptibility (IC50 value)): > 160 µM; IC50 (isolate HPG008, HSV-1 TK V204G (611T>G), read-out: Drug susceptibility Penciclovir (PCV)): > 40 µM; IC50 (isolate HPG009, HSV-1 pol E992K (2974G>A), also pol A1169T, read-out: Drug susceptibility (IC50 value)): 4.05 µM; IC50 (isolate HPG009, HSV-1 pol E992K (2974G>A), also pol A1169T, read-out: Drug susceptibility Penciclovir (PCV)): < 10 µM; IC50 (isolate HPG010, HSV-1 TK Q125* (373C>T), read-out: Drug susceptibility (IC50 value)): 87.1 µM; IC50 (isolate HPG010, HSV-1 TK Q125* (373C>T), read-out: Drug susceptibility Penciclovir (PCV)): > 40 µM; IC50 (isolate HPG011, HSV-1 TK Q125* (373C>T), read-out: Drug susceptibility (IC50 value)): 108 µM; IC50 (isolate HPG011, HSV-1 TK Q125* (373C>T), read-out: Drug susceptibility Penciclovir (PCV)): > 40 µM; IC50 (isolate HPG013, HSV-1 TK M121I (363G>A), read-out: Drug susceptibility (IC50 value)): 105 µM; IC50 (isolate HPG013, HSV-1 TK M121I (363G>A), read-out: Drug susceptibility Penciclovir (PCV)): > 40 µM; IC50 (isolate HPG013, HSV-1 pol D83A (248A>C), also TK M121I, pol A1169T, read-out: Drug susceptibility (IC50 value)): 105 µM; IC50 (isolate HPG013, HSV-1 pol D83A (248A>C), also TK M121I, pol A1169T, read-out: Drug susceptibility Penciclovir (PCV)): > 40 µM; IC50 (isolate HPG014, HSV-1 pol A1115T (3343G>A), read-out: Drug susceptibility (IC50 value)): 5.66 µM; IC50 (isolate HPG014, HSV-1 pol A1115T (3343G>A), read-out: Drug susceptibility Penciclovir (PCV)): < 10 µM; IC50 (isolate HPG014, HSV-1 pol R993C (2977C>T), read-out: Drug susceptibility (IC50 value)): 5.66 µM; IC50 (isolate HPG014, HSV-1 pol R993C (2977C>T), read-out: Drug susceptibility Penciclovir (PCV)): < 10 µM; IC50 (isolate HPG014, HSV-1 pol T54A (160A>G), read-out: Drug susceptibility (IC50 value)): 5.66 µM; IC50 (isolate HPG014, HSV-1 pol T54A (160A>G), read-out: Drug susceptibility Penciclovir (PCV)): < 10 µM; IC50 (isolate HPG015, HSV-1 pol 966stop or F965_I966insF (2892_2893insT to 2895_2896insT), read-out: Drug susceptibility (IC50 value)): 8.48 µM; IC50 (isolate HPG015, HSV-1 pol 966stop or F965_I966insF (2892_2893insT to 2895_2896insT), read-out: Drug susceptibility Penciclovir (PCV)): < 10 µM; IC50 (isolate HPG018, HSV-1 TK frameshift (881delC to 885delC), read-out: Drug susceptibility (IC50 value)): 117 µM; IC50 (isolate HPG018, HSV-1 TK frameshift (881delC to 885delC), read-out: Drug susceptibility Penciclovir (PCV)): > 40 µM; IC50 (isolate HPG018, HSV-1 pol P1199T (3595C>A), also TK deletion (C) nt 881-885, pol A1169T, read-out: Drug susceptibility (IC50 value)): 117 µM; IC50 (isolate HPG018, HSV-1 pol P1199T (3595C>A), also TK deletion (C) nt 881-885, pol A1169T, read-out: Drug susceptibility Penciclovir (PCV)): > 40 µM; IC50 (isolate HPG019, HSV-1 pol K750T (2249A>C), also TK deletion (G) nt 430-436, pol A1169T, read-out: Drug susceptibility (IC50 value)): > 160 µM; IC50 (isolate HPG019, HSV-1 pol K750T (2249A>C), also TK deletion (G) nt 430-436, pol A1169T, read-out: Drug susceptibility Penciclovir (PCV)): > 40 µM; IC50 (isolate HPG020, HSV-1 pol S911N (2732G>A), also pol A1169T, read-out: Drug susceptibility (IC50 value)): 2.48 µM; IC50 (isolate HPG020, HSV-1 pol S911N (2732G>A), also pol A1169T, read-out: Drug susceptibility Penciclovir (PCV)): < 10 µM; IC50 (isolate HPG021, HSV-1 pol R681Q (2042G>A), also TK deletion (G) nt 430-436, read-out: Drug susceptibility (IC50 value)): > 160 µM; IC50 (isolate HPG021, HSV-1 pol R681Q (2042G>A), also TK deletion (G) nt 430-436, read-out: Drug susceptibility Penciclovir (PCV)): > 40 µM; IC50 (isolate HPG021, HSV-1 pol T839A (2515A>G), also TK deletion (G) nt 430-436, read-out: Drug susceptibility (IC50 value)): > 160 µM; IC50 (isolate HPG021, HSV-1 pol T839A (2515A>G), also TK deletion (G) nt 430-436, read-out: Drug susceptibility Penciclovir (PCV)): > 40 µM; IC50 (isolate HPG025, HSV-1 pol E850Q (2548G>C), also TK R216C, read-out: Drug susceptibility (IC50 value)): 118 µM; IC50 (isolate HPG025, HSV-1 pol E850Q (2548G>C), also TK R216C, read-out: Drug susceptibility Penciclovir (PCV)): > 40 µM; IC50 (isolate HPG026, HSV-1 pol E850Q (2548G>C), also TK R216C, pol A1169T, read-out: Drug susceptibility (IC50 value)): 35 µM; IC50 (isolate HPG026, HSV-1 pol E850Q (2548G>C), also TK R216C, pol A1169T, read-out: Drug susceptibility Penciclovir (PCV)): 10 to 40 µM; IC50 (isolate HPG027, HSV-1 TK V204G (611T>G), also pol S914L, A1169AT, read-out: Drug susceptibility (IC50 value)): > 160 µM; IC50 (isolate HPG027, HSV-1 TK V204G (611T>G), also pol S914L, A1169AT, read-out: Drug susceptibility Penciclovir (PCV)): > 40 µM; IC50 (isolate HPG027, HSV-1 pol S914L (2741C>T), also TK V204G, pol A1169T, read-out: Drug susceptibility (IC50 value)): > 160 µM; IC50 (isolate HPG027, HSV-1 pol S914L (2741C>T), also TK V204G, pol A1169T, read-out: Drug susceptibility Penciclovir (PCV)): > 40 µM; IC50 (isolate HPG029, HSV-1 TK Y172S (515A>C), read-out: Drug susceptibility (IC50 value)): > 160 µM; IC50 (isolate HPG029, HSV-1 TK Y172S (515A>C), read-out: Drug susceptibility Penciclovir (PCV)): > 40 µM; IC50 (isolate HPG031, HSV-1 pol E1120A (3359A>C), also a TK resistance mutation (footnote e), read-out: Drug susceptibility (IC50 value)): 156 µM; IC50 (isolate HPG031, HSV-1 pol E1120A (3359A>C), also a TK resistance mutation (footnote e), read-out: Drug susceptibility Penciclovir (PCV)): > 40 µM; IC50 (isolate HPG031, HSV-1 pol G139R (415G>C or 415G>A), also a TK resistance mutation (footnote e), read-out: Drug susceptibility (IC50 value)): 156 µM; IC50 (isolate HPG031, HSV-1 pol G139R (415G>C or 415G>A), also a TK resistance mutation (footnote e), read-out: Drug susceptibility Penciclovir (PCV)): > 40 µM; IC50 (isolate HPG032, HSV-1 TK 183* (437_438insA), read-out: Drug susceptibility (IC50 value)): > 160 µM; IC50 (isolate HPG032, HSV-1 TK 183* (437_438insA), read-out: Drug susceptibility Penciclovir (PCV)): > 40 µM
